# Measured values reported in patent US11246877B2, “Nanoparticles for chemotherapy, targeted therapy, photodynamic therapy, immunotherapy, and any combination thereof” (The University of Chicago, priority 2016, dated 2022).
# Where two headings read alike, the source gives them in different places.
# How the values were obtained:
# [1] = test system: A2780/CDDP cells; test: In vitro cytotoxicity in ovarian cancer cells, MTS, 72 h; assay type: cell-based
# Procedure: (§1) A2780, A2780/CDDP, and SKOV-3 cells were seeded into 96-well plate at 2000 cells/well for 24 h. Afterwards cells were treated with free DHA or Zn/DHA at various concentrations and incubated for another 72 h. The cell viability was then determined via MTS assay by microplate reader.
# (§2) A2780, A2780/CDDP, and SKOV-3 cells were seeded into 96-well plate at 2000 cells/well for 24 h. Afterwards cells were treated with different formulations at various concentrations and incubated for another 72 h. The cell viability was then determined via MTS assay by microplate reader.
# [2] = test system: H82 cells; test: In vitro cytotoxicity of NCP-1/ET/siRNA in SCLC, MTS, 72 h; assay type: cell-based
# Procedure: (§3) Small cell lung cancer (SCLC) cell lines H82 and H69 cells were seeded into 96-well plate at 2000 cells/well for 24 h. Afterwards, cells were treated by cisplatin, ET, cisplatin+ET, NCP-1, NCP-1/ET, and NCP-1/ET/siRNAs at various concentrations and incubated for another 72 h. The cell viability was then determined via MTS assay by microplate reader.
# [3] = test system: H69 cells; test: as above; assay type: cell-based
# Procedure: as §3
# [4] = test system: A2780/CDDP cells; test: In vitro cytotoxicity of cisplatin, OTS167 and NCP-1/OTS167; assay type: cell-based
# Procedure: The cytotoxicity of NCP-1/OTS167 with different molar ratio was then evaluated.
# [5] = test system: MC38 cells; test: In vitro cytotoxicity of NCP-3/DHA; assay type: cell-based, murine
# Procedure: (§4) The cytotoxicity of NCP-3/DHA was evaluated against two colon cancer cell lines CT26 and MC38.
# [6] = test system: CT26 cells; test: In vitro cytotoxicity of NCP-3/DHA; assay type: cell-based, murine
# Procedure: as §4
# [7] = test system: MC38 cells; test: In vitro cytotoxicity of NCP-2/DHA; assay type: cell-based, murine
# Procedure: (§5) The cytotoxicity of NCP-2/DHA was evaluated against two colon cancer cell lines CT26 and MC38. […] The combination index (CI50) for the two drugs was lower than 1 in some drug effect levels, indicating the syngestic effect between two drugs.
# [8] = test system: CT26 cells; test: In vitro cytotoxicity of NCP-2/DHA; assay type: cell-based, murine
# Procedure: as §5
# [9] = test system: A2780 cells; test: In vitro cytotoxicity in ovarian cancer cells, MTS, 72 h; assay type: cell-based; conditions: Homo sapiens; A2780, 72 h, DHA concentration; read-out: IC50 of DHA (numbers in parenthesis)
# Procedure: as §1, §2
# [10] = test system: SKOV-3 cells; test: as above; assay type: cell-based; conditions: Homo sapiens, SK-OV-3; SKOV-3, 72 h, DHA concentration; read-out: IC50 of DHA (numbers in parenthesis)
# Procedure: as §1, §2
# [11] = test system: H82 cells; test: In vitro cytotoxicity against small cell lung cancer cells, MTS, 96 h; assay type: cell-based; conditions: Homo sapiens, NCI-H82, etoposide concentration
# Procedure: H82 cells seeded on 96-well plates at a density of 2000 cells/well were treated with Zn/ET and free etoposide at various etoposide concentrations for 96 h. The cell viability was then detected by MTS assay (Promega, Madison, Wis., United States of America) and the IC50 values were calculated accordingly. […] ET is likely released from Zn/ET via intracellular reduction by endogenous thiol groups as shown below in Scheme 9.
# [12] = test system: H460 cells; test: In vitro cytotoxicity against non-small cell lung cancer cells, MTS, 72 h; assay type: cell-based; conditions: Homo sapiens, NCI-H460
# Procedure: H460 and A549 cells seeded on 96-well plates at a density of 2000 cells/well were treated with Zn/PTX and free PTX at various […] concentrations for 72 h. The cell viability was then detected by MTS assay (Promega, USA) and the IC50 values were calculated accordingly.
# [13] = test system: CT26 cells; test: Apoptosis/necrosis by Annexin V flow cytometry; assay type: cell-based, murine; conditions: CT26, 24 h, oxaliplatin concentration 10 μM
# Procedure: CT26 cells seeded in 24-well plates at 1×10^5 cells/well were first incubated with NCP-3/DHA or appropriate controls for 24 h at an oxaliplatin concentration of 10 μM. The floating and adherent cells were collected and stained with Alexa Fluor 488 AnnexinV/dead cell apoptosis kit (Invitrogen, USA) according to manufacturer's instructions. The apoptosis and necrosis were examined by a flow cytometry (LSRII Blue, BD, Franklin Lakes, N.J., United States of America).
# [14] = test system: CT26 cells; test: Immunogenic cell death: cell surface CRT by flow cytometry; assay type: cell-based, murine; conditions: CT26, oxaliplatin 10 μM and/or DHA 20 μM, 24 h
# Procedure: In Vitro Immunogenic Cell Death The immunogenic cell death induced by NCP-3/DHA was evaluated by flow cytometry and ELISA. For flow cytometry analysis, CT26 cells were seeded at 1×10^6 cells per well in 6-well plates and further cultured for 24 h. The culture media were replaced by 2 mL of fresh culture media containing 10% FBS. Oxaliplatin, DHA, chol-DHA, oxaliplatin+DHA, NCP-3, Zn/DHA and NCP-3/DHA were added to the cells, respectively, at equivalent oxaliplatin and/or DHA dose of 10 μM and 20 μM, respectively. Cells incubated with PBS served as control. Following incubation of 24 h, the cells were collected, incubated with AlexaFluor 488-CRT antibody for 2 h, and stained with PI. The samples were analyzed by flow cytometer (LSRII Orange, BD, Franklin Lakes, N.J., United States of America) to identify cell surface CRT. The fluorescence intensity of stained cells was gated on PI-negative cells.
# [15] = test system: HT29 cells; test: In vitro PDT cytotoxicity; assay type: cell-based, human; conditions: read-out: Oxaliplatin IC50
# Procedure: (§6) The cytotoxicity of NCP-2@pyrolipid was evaluated against two colorectal cancer cells including murine colorectal adenocarcinoma CT26 and human colorectal adenocarcinoma HT29 cells. By combining chemotherapy of oxaliplatin and PDT modalities into one single nanoparticle, NCP-2@pyrolipid induces apoptosis/necrosis as well as elicit immunogenic cell death upon LED light irradiation. […] However, upon irradiation at 54 J/cm^2 light irradiation (670 nm), the oxaliplatin IC50 of NCP-2@pyrolipid was decreased by ˜4-fold and ˜5-fold in CT26 and HT29 cells, respectively.
# [16] = test system: CT26 cells; test: HMGB-1 release by ELISA; assay type: cell-based, murine; conditions: CT26, oxaliplatin 10 μM and/or DHA 20 μM, 48 h
# Procedure: The release of high mobility group box-1 (HMGB-1) protein after ICD was evaluated by ELISA. CT26 cells were seeded at 1×10^6 cells per well in 6-well plates and further cultured for 24 h. The culture media were replaced by 2 mL of fresh culture media containing 10% FBS. Oxaliplatin, DHA, chol-DHA, oxaliplatin+DHA, NCP-3, Zn/DHA, NCP-3/DHA, and NCP-3/OA-DHA were added to the cells, respectively, at equivalent oxaliplatin and/or DHA dose of 10 μM and 20 μM, respectively. Cells incubated with PBS served as control. Following incubation of 48 h, the supernatant was collected and analyzed by an ELISA kit (Chondrex, Inc., Redmond, Wash., United States of America) by microplate reader.
# [17] = test system: MC38 cells; test: In vitro cytotoxicity of NCP-2/MTX; assay type: cell-based, murine; conditions: MC38, drug ratio 1:1; read-out: Oxaliplatin IC50
# Procedure: (§7) The cytotoxicity of NCP-2/MTX was evaluated against two syngeneic cancer cell lines:colorectal adenocarcinoma CT26 and colorectal carcinoma MC38. By combining two chemotherapeutic agents with vastly different solubility requirements, NCP-2/MTX elicited substantial anticancer efficacy owing to synergy between the drugs. […] The combination index (CI50) for the two drugs was much more favorable for the 2:1 compared to 1:1 molar ratio, with equal Pt doses.
# [18] = test system: CT26 cells; test: In vitro cytotoxicity of NCP-2/MTX; assay type: cell-based, murine; conditions: CT26, drug ratio 2:1; read-out: Oxaliplatin IC50
# Procedure: as §7
# [19] = test system: MC38 cells; test: In vitro cytotoxicity of NCP-2/PTX, MTS; assay type: cell-based, murine; conditions: MC38, drug ratio 1:1; read-out: Oxaliplatin IC50
# Procedure: (§8) The cytotoxicity of NCP-2/PTX was evaluated against two colorectal cancer cells including murine colorectal adenocarcinoma CT26 and murine colorectal carcinoma MC38. By combining two chemotherapeutic agents with vastly different solubility requirements, NCP-2/PTX elicited substantial anticancer efficacy owing to synergy between the drugs.
# (§9) The IC50 of oxaliplatin was substantially lower than that of paclitaxel by MTS assay, likely due to the hydrophobicity of paclitaxel. Paclitaxel was prepared in a stock solution of 3:1 ethanol:water ratio at 1 mg/ml before subsequent dilution to prepare free drug doses. The combination index (CI50) for the two drugs was much more favorable for the 1:1 compared to 2:1 molar ratio, with equal oxaliplatin doses.
# [20] = test system: CT26 cells; test: In vitro cytotoxicity of NCP-2/PTX, MTS; assay type: cell-based, murine; conditions: read-out: Oxaliplatin IC50
# Procedure: as §8, §9
# [21] = test system: CT26 cells; test: In vitro PDT cytotoxicity; assay type: cell-based, murine; conditions: read-out: Oxaliplatin IC50
# Procedure: as §6
# [22] = test system: CT26 cells; test: In vitro PDT evoked immunogenic cell death (surface CRT); assay type: cell-based, murine; conditions: with or without irradiation, Pt 5 μM, pyrolipid 1.6 μM
# Procedure: Calreticulin (CRT) is a distinct biomarker exposed on the surface of cells undergoing immunogenic cell death (ICD). The immunogenic cell death induced by NCP-2@pyrolipid was evaluated by immunofluorescence and flow cytometry. For immunofluorescence analysis, CT26 cells were seeded at 5×10^5 cells per well in 6-well plates and further cultured for 24 h. The culture media were replaced by 2 mL of fresh culture media containing 10% FBS. Oxaliplatin, NCP-2, NCP-2@pyrolipid, and porphysome were added to the cells, respectively, at an equivalent Pt dose of 5 μM and pyrolipid dose of 1.6 μM. Cells incubated with PBS served as control. After 24-h incubation, the cells were irradiated with LED light (670 nm) at 100 mW/cm^2 for 15 min (equal to 90 J/cm^2). Following further incubation of 4 h, the cells were washed with PBS three times, fixed with 4% paraformaldehyde, incubated with AlexaFluor 488-CRT antibody for 2 h, stained with DAPI, and observed under CLSM using 405 nm and 488 nm lasers for visualizing nuclei and CRT expression on the cell membrane, respectively. […] The samples were analyzed by flow cytometer (LSRII Orange, BD, Franklin Lakes, N.J., United States of America) to identify cell surface CRT. The fluorescence intensity of stained cells was gated on PI-negative cells.
# [23] = Mus musculus, MC-38, MC38, DHA concentration, read-out: DHA IC50
# [24] = Mus musculus, CT26, DHA concentration, read-out: DHA IC50
# [25] = MC38, read-out: Oxaliplatin IC50
# [26] = CT26, read-out: Oxaliplatin IC50
compound,measurement,setting,value
"N.N.[Cl][Pt][Cl] [Cisplatin, cisplatin]",IC50,"[1]; cisplatin concentration, read-out: IC50 of cisplatin",19.8 ± 4.01 µM
same,IC50,[2],7.93 ± 0.7 µM
same,IC50,[3],13.2 ± 0.35 µM
same,IC50,"[4]; cisplatin concentration, read-out: IC50, Cisplatin",12.8 ± 0.19 µM
"C[C@H]1[C@@H](O)O[C@@H]2O[C@@]3(C)CC[C@H]4[C@H](C)CC[C@@H]1[C@@]24OO3 [DHA, dihydroartemisinin]",IC50,[5]; [23],9.68 ± 1.12 µM
same,IC50,[6]; [24],6.25 ± 1.53 µM
same,IC50,[7]; [23],4.83 ± 1.12 µM
same,IC50,[8]; [24],7.77 ± 2.68 µM
same,IC50,[9],0.3 ± 0.11 µM
same,IC50,[10],9.9 ± 0.34 µM
same,IC50,"[1]; DHA concentration, read-out: IC50 of DHA (numbers in parenthesis)",2.61 ± 0.18 µM
COc1cc([C@@H]2c3cc4c(cc3[C@@H](O[C@@H]3O[C@@H]5CO[C@@H](C)O[C@H]5[C@H](O)[C@H]3O)[C@H]3COC(=O)[C@H]23)OCO4)cc(OC)c1O [Etoposide],IC50,"[2]; Homo sapiens, NCI-H82",30.9 ± 0.37 µM
same,IC50,"[3]; Homo sapiens, NCI-H69",42.2 ± 0.61 µM
same,IC50,[11],8.83 ± 0.13 µM
CC(=O)c1cnc2ccc(-c3cc(Cl)c(O)c(Cl)c3)nc2c1N[C@H]1CC[C@H](CN(C)C)CC1 [OTS167],IC50,"[4]; OTS167 concentration, read-out: IC50, OTS167",0.0121 ± 0.00046 µM
"CC(=O)O[C@H]1C(=O)[C@@]2(C)[C@H]([C@H](OC(=O)c3ccccc3)[C@]3(O)C[C@H](OC(=O)[C@H](O)[C@@H](NC(=O)c4ccccc4)c4ccccc4)C(C)=C1C3(C)C)[C@]1(OC(C)=O)CO[C@@H]1C[C@@H]2O [PTX, Paclitaxel]",IC50,[12],10.8 ± 0.44 µM
O=C1[O][Pt]2([NH][C@@H]3CCCC[C@H]3[NH]2)[O]C1=O [oxaliplatin],IC50,[5]; [25],12.8 ± 1.32 µM
same,IC50,[6]; [26],10.3 ± 1.62 µM
same,apoptosis and necrosis,[13],caused necrosis
same,IC50,[7]; [25],7.87 ± 1.32 µM
same,IC50,[8]; [26],5.77 ± 1.06 µM
same,cell surface CRT expression,[14],caused cell surface CRT expression
same,IC50,"[15]; HT29, irradiation No",1.44 ± 0.32 µM
same,IC50,"[15]; HT29, irradiation Yes (670 nm, 54 J/cm^2)",1.87 ± 0.31 µM
same,HMGB-1 release,[16],HMGB-1 release
same,IC50,[17],3.35 ± 0.13 µM
same,IC50,[18],7.05 ± 0.59 µM
same,IC50,[19],3.35 ± 0.13 µM
same,IC50,"[20]; CT26 (cell-line cell empty), drug ratio 2:1",10.2 ± 0.98 µM
same,IC50,"[20]; CT26, drug ratio 1:1",7.05 ± 0.95 µM
same,IC50,"[21]; CT26, irradiation No",5.05 ± 0.95 µM
same,IC50,"[21]; CT26, irradiation Yes (670 nm, 54 J/cm^2)",4.97 ± 0.49 µM
same,surface CRT expression,[22],significant amounts of CRT
